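These data come from cells grown in 96-well plates and exposed to compound for 48 hours at five concentrations. GI50 is the concentration that inhibits growth by half. TGI marks complete inhibition of growth.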
Key:
Test in all cases: DTP human tumour cell line panel, 48 h
SW-620 colon = tested on: SW-620 colon
K-562 leukemia = tested on: K-562 leukemia
HL-60(TB) leukemia = tested on: HL-60(TB) leukemia
COLO 205 colon = tested on: COLO 205 colon
MALME-3M melanoma = tested on: MALME-3M melanoma
BT-549 breast = tested on: BT-549 breast
SK-MEL-2 melanoma = tested on: SK-MEL-2 melanoma
RXF 393 renal = tested on: RXF 393 renal
SNB-75 CNS = tested on: SNB-75 CNS
MCF7 breast = tested on: MCF7 breast
SR leukemia = tested on: SR leukemia
NCI-H226 lung = tested on: NCI-H226 lung
A549 NSCLC = tested on: A549 NSCLC
HT29 colon = tested on: HT29 colon
786-0 renal = tested on: 786-0 renal
SK-OV-3 ovarian = tested on: SK-OV-3 ovarian
OVCAR-5 ovarian = tested on: OVCAR-5 ovarian
MOLT-4 leukemia = tested on: MOLT-4 leukemia
NCI-H522 lung = tested on: NCI-H522 lung
PC-3 prostate = tested on: PC-3 prostate
RPMI-8226 leukemia = tested on: RPMI-8226 leukemia
MDA-MB-231 breast = tested on: MDA-MB-231 breast
NCI/ADR-RES ovarian = tested on: NCI/ADR-RES ovarian
OVCAR-3 ovarian = tested on: OVCAR-3 ovarian
OVCAR-8 ovarian = tested on: OVCAR-8 ovarian
TK-10 renal = tested on: TK-10 renal
UO-31 renal = tested on: UO-31 renal
T-47D breast = tested on: T-47D breast
MDA-MB-435 = tested on: MDA-MB-435
SF-295 CNS = tested on: SF-295 CNS
CAKI-1 renal = tested on: CAKI-1 renal
KM12 colon = tested on: KM12 colon
M14 melanoma = tested on: M14 melanoma
HCT-15 colon = tested on: HCT-15 colon
LOX IMVI melanoma = tested on: LOX IMVI melanoma
NCI-H23 lung = tested on: NCI-H23 lung
OVCAR-4 ovarian = tested on: OVCAR-4 ovarian
HOP-62 NSCLC = tested on: HOP-62 NSCLC
UACC-62 melanoma = tested on: UACC-62 melanoma
EKVX NSCLC = tested on: EKVX NSCLC
SK-MEL-5 melanoma = tested on: SK-MEL-5 melanoma
SN12C renal = tested on: SN12C renal
U251 CNS = tested on: U251 CNS
SNB-19 CNS = tested on: SNB-19 CNS
A498 renal = tested on: A498 renal
SK-MEL-28 melanoma = tested on: SK-MEL-28 melanoma
HCT-116 colon = tested on: HCT-116 colon
HOP-92 NSCLC = tested on: HOP-92 NSCLC
SF-268 CNS = tested on: SF-268 CNS
IGROV1 ovarian = tested on: IGROV1 ovarian
DU-145 prostate = tested on: DU-145 prostate
UACC-257 melanoma = tested on: UACC-257 melanoma
SF-539 CNS = tested on: SF-539 CNS
NCI-H460 lung = tested on: NCI-H460 lung
HCC-2998 colon = tested on: HCC-2998 colon
ACHN renal = tested on: ACHN renal
CCRF-CEM leukemia = tested on: CCRF-CEM leukemia
HS 578T breast = tested on: HS 578T breast

Q: Which results are given for Cc1nnc(Nc2ccc(NC(=O)Nc3ccc(Cl)cc3)cc2)c2ccccc12?
A: GI50 (SW-620 colon): 2.15 µM; TGI (SW-620 colon): 4.76 µM; GI50 (K-562 leukemia): 2.2 µM; TGI (K-562 leukemia): 4.67 µM; GI50 (HL-60(TB) leukemia): 2.03 µM; TGI (HL-60(TB) leukemia): 4.19 µM; GI50 (COLO 205 colon): 2.22 µM; TGI (COLO 205 colon): 5.29 µM; GI50 (MALME-3M melanoma): 2.17 µM; TGI (MALME-3M melanoma): 4.79 µM; GI50 (BT-549 breast): 2.21 µM; TGI (BT-549 breast): 5.56 µM; GI50 (SK-MEL-2 melanoma): 2.22 µM; TGI (SK-MEL-2 melanoma): 4.59 µM; GI50 (RXF 393 renal): 2.17 µM; TGI (RXF 393 renal): 4.13 µM; GI50 (SNB-75 CNS): 1.91 µM; TGI (SNB-75 CNS): 5.49 µM; GI50 (MCF7 breast): 2.21 µM; TGI (MCF7 breast): 10.9 µM; GI50 (SR leukemia): 2.56 µM; TGI (SR leukemia): 9.55 µM; GI50 (NCI-H226 lung): 3.61 µM; TGI (NCI-H226 lung): 15.9 µM; GI50 (A549 NSCLC): 3.24 µM; TGI (A549 NSCLC): 8.59 µM; GI50 (HT29 colon): 1.78 µM; TGI (HT29 colon): 3.67 µM; GI50 (786-0 renal): 1.71 µM; TGI (786-0 renal): 3.34 µM; GI50 (SK-OV-3 ovarian): 2.61 µM; TGI (SK-OV-3 ovarian): 6.59 µM; GI50 (OVCAR-5 ovarian): 2.1 µM; TGI (OVCAR-5 ovarian): 4.99 µM; GI50 (MOLT-4 leukemia): 2.36 µM; TGI (MOLT-4 leukemia): 6 µM; GI50 (NCI-H522 lung): 1.84 µM; TGI (NCI-H522 lung): 3.88 µM; GI50 (PC-3 prostate): 3.49 µM; TGI (PC-3 prostate): 11.9 µM; GI50 (RPMI-8226 leukemia): 2.6 µM; TGI (RPMI-8226 leukemia): 6.48 µM; GI50 (MDA-MB-231 breast): 2.38 µM; TGI (MDA-MB-231 breast): 5.94 µM; GI50 (NCI/ADR-RES ovarian): 3.63 µM; TGI (NCI/ADR-RES ovarian): 14.9 µM; GI50 (OVCAR-3 ovarian): 1.87 µM; TGI (OVCAR-3 ovarian): 3.99 µM; GI50 (OVCAR-8 ovarian): 3.35 µM; TGI (OVCAR-8 ovarian): 9.32 µM; GI50 (TK-10 renal): 3.19 µM; TGI (TK-10 renal): 9.42 µM; GI50 (UO-31 renal): 2.14 µM; TGI (UO-31 renal): 6.01 µM; GI50 (T-47D breast): 2.06 µM; TGI (T-47D breast): 5.08 µM; GI50 (MDA-MB-435): 1.73 µM; TGI (MDA-MB-435): 3.43 µM; GI50 (SF-295 CNS): 2.04 µM; TGI (SF-295 CNS): 4.21 µM; GI50 (CAKI-1 renal): 3.49 µM; TGI (CAKI-1 renal): 12.8 µM; GI50 (KM12 colon): 1.99 µM; TGI (KM12 colon): 4.53 µM; GI50 (M14 melanoma): 1.76 µM; TGI (M14 melanoma): 3.57 µM; GI50 (HCT-15 colon): 1.91 µM; TGI (HCT-15 colon): 4.53 µM; GI50 (LOX IMVI melanoma): 1.75 µM; TGI (LOX IMVI melanoma): 3.27 µM; GI50 (NCI-H23 lung): 2.38 µM; TGI (NCI-H23 lung): 6.31 µM; GI50 (OVCAR-4 ovarian): 2.79 µM; TGI (OVCAR-4 ovarian): 8.36 µM; GI50 (HOP-62 NSCLC): 1.81 µM; TGI (HOP-62 NSCLC): 3.7 µM; GI50 (UACC-62 melanoma): 1.75 µM; TGI (UACC-62 melanoma): 3.59 µM; GI50 (EKVX NSCLC): 3.47 µM; TGI (EKVX NSCLC): 17.9 µM; GI50 (SK-MEL-5 melanoma): 1.85 µM; TGI (SK-MEL-5 melanoma): 3.5 µM; GI50 (SN12C renal): 2.86 µM; TGI (SN12C renal): 9.41 µM; GI50 (U251 CNS): 1.98 µM; TGI (U251 CNS): 3.75 µM; GI50 (SNB-19 CNS): 2.77 µM; TGI (SNB-19 CNS): 8.72 µM; GI50 (A498 renal): 3.21 µM; TGI (A498 renal): 10.5 µM; GI50 (SK-MEL-28 melanoma): 1.63 µM; TGI (SK-MEL-28 melanoma): 3.2 µM; GI50 (HCT-116 colon): 1.86 µM; TGI (HCT-116 colon): 3.59 µM; GI50 (HOP-92 NSCLC): 2.56 µM; TGI (HOP-92 NSCLC): 6.06 µM; GI50 (SF-268 CNS): 2.57 µM; TGI (SF-268 CNS): 7.17 µM; GI50 (IGROV1 ovarian): 3.98 µM; TGI (IGROV1 ovarian): 19.5 µM; GI50 (DU-145 prostate): 4.77 µM; TGI (DU-145 prostate): 19.5 µM; GI50 (UACC-257 melanoma): 2.39 µM; TGI (UACC-257 melanoma): 5.3 µM; GI50 (SF-539 CNS): 1.61 µM; TGI (SF-539 CNS): 3.32 µM; GI50 (NCI-H460 lung): 3.46 µM; TGI (NCI-H460 lung): 11.7 µM; GI50 (HCC-2998 colon): 2.84 µM; TGI (HCC-2998 colon): 8.09 µM; GI50 (ACHN renal): 1.84 µM; TGI (ACHN renal): 3.69 µM; GI50 (CCRF-CEM leukemia): 2.38 µM; TGI (CCRF-CEM leukemia): 5.99 µM; GI50 (HS 578T breast): 2.52 µM; TGI (HS 578T breast): 6.4 µM

— PubChem BioAssay (NCI)
